Assay results reported in US20230285372A1, “Pharmaceutical use of (E)-3-arylheterocyclylprop-2-enoic acid derivatives” (MEDCURIUS INC., priority 2020, published 2023).

How the values were obtained:
[1] = tested on: MPTP-induced Parkinson's disease mouse; assay: Pole-climbing test, MPTP-induced Parkinson's disease mouse; type: in vivo; conditions: 40 days, vs model group
Procedure: (§1) Male C57 mouse were screened for their motor function by a mouse rod-rotating test, and unqualified ones were excluded from the test. […] MPTP was injected subcutaneously every 4 days in the model group and the drug administration group with a dosage of 25 mg/kg for 40 consecutive days. Each group of I-5 was administered once a day at 8:00 am and 8:00 pm (by intragastric administration), twice in total. […] The intragastric volume was 0.1 ml/10 g body weight, and the behavior test was started 40 days later. […] The storage time of the prepared liquid medicine was not more than 24 hours.
A climbing pole in the pole-climbing test was a rough wooden pole with a diameter of 2 cm and a length of 50 cm. The bottom of the wooden pole was located in the mouse home cage and was vertically oriented. When the mouse was placed on top of the wooden pole, it would naturally descend to the bottom of the wooden pole and reach the base of the pole. […] The mouse should have a pre-acclimation period of 2 days prior to the test, training five times a day. To the test day, the time required for the […] to reach the bottom (incubation period) was taken as an evaluation index to observe the effect of the tested compound on the motion ability of the mouse.

p-synuclein = assay: Phosphorylated α-synuclein (p-synuclein) level in midbrain, Western blot, MPTP mouse; type: in vivo; conditions: vs model group
Excerpt: The core pathological change of Parkinson's disease is the loss of dopaminergic neurons. Tyrosine hydroxylase (TH), the rate-limiting enzyme in dopamine synthesis, is the landmark protein of the dopaminergic neurons. Therefore, the decrease in its level indicates the loss of the dopaminergic neurons. A key protein for the occurrence and development of Parkinson's disease is α-synuclein protein, and the abnormal modification (hyperphosphorylation) of this protein can inhibit microtubule polymerization, enhance oxidative stress, and thus accelerate the death of the dopaminergic neurons.
as §1
Tissues from all the animals were collected on the second day after the end of the behavioral experiment. Hearts from six animals in each group were perfused and fixed with paraformaldehyde for pathological analysis of paraffin sections. Brain tissue of the remaining animals was separated on ice, and brain areas (midbrain) related to Parkinson's disease were collected. After being frozen with liquid nitrogen, they were stored in a refrigerator at −80° C. for protein analysis. The level of tyrosine hydroxylase (TH), a marker protein of dopaminergic neurons, was detected by immumohistochemistry, and α-synuclein protein level and phosphorylation level of the protein were detected by Western blot.

NQO-1 = NQO-1 expression in HT-22 cytoplasm, Western Blot; type: cell-based, mouse; conditions: HT-22 cells, 1.25 μM, 24 hours, vs control group
Excerpt: (§2) As a transcription factor, Nrf2 needs to enter the nucleus and combine with ARE sequence to play a role in transcriptional activation. Therefore, Nrf2 protein level in the nucleus is an important prerequisite for the activation of Nrf2 signaling pathway. NQO-1 and HO-1 are target genes regulated by Nrf2, and the increase of their protein levels is an important sign of activation of the Nrf2 signaling pathway.
(§3) HT-22 cells in logarithmic growth phase were selected, the culture medium was discarded, the cells were digested with 0.25% Trypsin containing EDTA, and cell suspension was made. Cell density was adjusted to 50000/ml with DMEM/F12 medium (containing 10% FBS and 1% double antibody) and it was inoculated to 6-well plate, with 2000 μL/well, the number of cells per well was 100, 000, and the cells were cultured in a cell incubator at 37° C. in an atmosphere containing 5% CO2 for 24 hours. Then, the medium of each well was replaced with new 1980 μL DMEM/F12 medium. […] After 24 hours, the cells were collected, nuclear protein and cytoplasmic protein were extracted, and the level of Nrf2 in the nucleus and the expression of NQO-1 and HO-1 in cytoplasm were detected by Western Blot.

HO-1 = HO-1 expression in HT-22 cytoplasm, Western Blot; type: cell-based, mouse; conditions: HT-22 cells, 1.25 μM and 0.625 μM, 24 hours, vs control group
Excerpt: as §2, §3

[2] = tested on: tyrosine hydroxylase (TH); assay: Tyrosine hydroxylase (TH) level in midbrain, immunohistochemistry, MPTP mouse; type: in vivo; conditions: medium and high dosage of I-5 (10 and 20 mg/kg bid); vs model group
Procedure: Male C57 mouse were screened for their motor function by a mouse rod-rotating test, and unqualified ones were excluded from the test. […] MPTP was injected subcutaneously every 4 days in the model group and the drug administration group with a dosage of 25 mg/kg for 40 consecutive days. Each group of I-5 was administered once a day at 8:00 am and 8:00 pm (by intragastric administration), twice in total. The control group and model group were given the corresponding solvent once a day in the morning (by intragastric administration) while the positive control group (L-DOPA) was given L-DOPA once a day in the morning (by intragastric administration). The intragastric volume was 0.1 ml/10 g body weight, and the behavior test was started 40 days later. […] The storage time of the prepared liquid medicine was not more than 24 hours.
Tissues from all the animals were collected on the second day after the end of the behavioral experiment. […] The level of tyrosine hydroxylase (TH), a marker protein of dopaminergic neurons, was detected by immumohistochemistry, and α-synuclein protein level and phosphorylation level of the protein were detected by Western blot.

## N#C/C=C/c1ccccn1 [Compound I-5]
[1]; I-5 5 mg/kg bid intragastric, p<0.01
  latency of mouse reaching the base of the pole: significantly shortened
[1]; I-5 10 mg/kg bid intragastric, p<0.0001
  latency of mouse reaching the base of the pole: significantly shortened
[1]; I-5 20 mg/kg bid intragastric, p<0.0001
  latency of mouse reaching the base of the pole: significantly shortened
p-synuclein; I-5 10 mg/kg, p<0.01
  p-synuclein protein level in the midbrain: significantly lower than that in the model group
p-synuclein; I-5 20 mg/kg, p<0.05
  p-synuclein protein level in the midbrain: significantly lower than that in the model group
NQO-1
  protein level of NQO-1: increased significantly
HO-1
  protein level of HO-1: increased significantly
[2]
  TH positive area of substantia nigra: significantly increase the TH positive area
